The text below walks through data of patent US20230108050A1, “CXCL8 (INTERLEUKIN-8) ACTIVITY INHIBITOR AND CORTICOSTEROID COMBINATION AND PHARMACEUTICAL COMPOSITION AND USE THEREOF” (Dompe' farmaceutici SpA, priority 2020, published 2023).

What all share (format): in vivo, BALB/c mice
The test system of assay [1] is Th17 glucocorticoid-insensitive asthma mouse model. Description: Neutrophil myeloperoxidase and eosinophil peroxidase activity assays in lung, Example 2c. Particulars: DF2755A 10 mg/kg oral twice a day, dexamethasone 5 mg/kg.
Experimental: From day 28 after first immunization to day 31, mice were treated with PBS (vehicle), DF2755A, dexamethasone or DF2755A/dexamethasone as described below, and 60 minutes later exposed to aerosolized ovalbumin (1% in saline) for 20 minutes per day. DF2755A was administered orally by gavage twice a day so that one of the administrations was always 60 min before the OVA challenge. DF2755A was diluted in saline 0.9% only at the time of use at room temperature and used at the dose of 10 mg/kg via the oral route. Dexamethasone was diluted in saline 0.9% only at the time of use at room temperature and given at the dose of 5 mg/kg. […]
The neutrophil myeloperoxidase (MPO) and eosinophil peroxidase (EPO) activities were measured as follows. […] The reaction was stopped by adding 100 μL of H2SO4 and quantified at 450 nm wave lengths in a spectrophotometer (VERSAmax, Molecular Devices, CA). […] After 30 minutes of incubation at room temperature, the reaction was stopped by adding 50 μL of H2SO4 1M and quantified at 492 nm in spectrophotometer.
Assay [2] shares this test system. The assay can be described thus: Assessment of leukocyte content in the airways (BALF), Example 2a. Particulars: DF2755A 10 mg/kg oral twice a day, dexamethasone 5 mg/kg, BALF day 32. As for the experimental part:
The investigation was conducted on the same mouse model as described in Example 1. In details, BALB/c mice received systemic immunization by subcutaneous injection of 20 μg of chicken egg ovalbumin (OVA grade V, >98% pure; Sigma, St Louis, Mo.) in saline, emulsified in 75 μL CFA (Sigma-Aldrich) at day 0. From day 28 after first immunization to day 31, mice were treated with PBS (vehicle), D[…], dexamethasone or D[…]/dexamethasone as described below, and 60 minutes later exposed to aerosolized ovalbumin (1% in saline) for 20 minutes per day. D[…] was administered orally by gavage twice a day so that one of the administrations was always 60 min before the OVA challenge. D[…] was diluted in saline 0.9% only at the time of use at room temperature and used at the dose of 10 mg/kg via the oral route. […] To assess leukocyte infiltration in the airways, bronchoalveolar lavage fluid (BALF) was performed. On day 32 after immunization, an incision was made in the trachea where a 1.7 mm outside diameter polyethylene catheter was inserted. Then, the airways were washed 2 times with 1 mL of phosphate buffer saline (PBS). The samples were centrifuged at 300×g for 10 minutes at 4° C., and 100 μL of 3% BSA in PBS was added to the pellet. A sample of this solution was used to assess the total leukocytes in the airways. The remaining solution was centrifuged at 300×g for 10 minutes at 4° C. and put on a histology glass slide to perform the differential counting of macrophages, lymphocytes, eosinophils and neutrophils using an optical microscopy. The supernatant was used to quantify the amount of total protein and the levels of chemokines and cytokines. The total protein assay was determined using a Bio-Rad protein assay Dye Reagent (Bio-Rad, USA) to measure possible protein leakage.

Assay [3] has the same test system. The assay can be described thus: Assessment of pulmonary mechanics, Example 2d. As to conditions: DF2755A 10 mg/kg oral twice a day, dexamethasone 5 mg/kg; 24 h after the last challenge; FIG. 8. The procedure:
(§1) The investigation was conducted on the same mouse model as described in Example 1. In details, BALB/c mice received systemic immunization by subcutaneous injection of 20 μg of chicken egg ovalbumin (OVA grade V, >98% pure; Sigma, St Louis, Mo.) in saline, emulsified in 75 μL CFA (Sigma-Aldrich) at day 0.
(§2) From day 28 after first immunization to day 31, mice were treated with PBS (vehicle), DF2755A, dexamethasone or DF2755A/dexamethasone as described below, and 60 minutes later exposed to aerosolized ovalbumin (1% in saline) for 20 minutes per day. DF2755A was administered orally by gavage twice a day so that one of the administrations was always 60 min before the OVA challenge. DF2755A was diluted in saline 0.9% only at the time of use at room temperature and used at the dose of 10 mg/kg via the oral route. Dexamethasone was diluted in saline 0.9% only at the time of use at room temperature and given at the dose of 5 mg/kg.
Mice were anesthetized with a subcutaneous injection of ketamine and xylazine (130 mg/Kg ketamine and 8.5 mg/Kg xylazine) to maintain spontaneous breathing under anesthesia. […] Under mechanical respiration the Dynamic Compliance (Cdyn) and Lung Resistance (RI) were determined by Resistance and Compliance RC test. […]

Assay [4] has the same test system. Description: Chemokine and cytokine analysis in lung (ELISA), Example 2b. As to conditions: DF2755A 10 mg/kg oral twice a day, dexamethasone 5 mg/kg, lung supernatant ELISA. As for the experimental part: as §1, §2
After BALF, the right lung was removed and a sample of 100 mg was homogenized in 1 mL of PBS (0.4 M NaCl and 10 mM of NaPO4) containing anti-proteases (0.1 mM phenylmethylsulfonyl fluoride, 0.1 mM benzetonium chloride, 10 mM EDTA and 20 KI aprotinin A). The homogenate was centrifuged 8,000×g for 10 minutes at 4° C. The supernatant was frozen for further ELISA assay and the pellet was frozen/thawed three times using liquid nitrogen to assess neutrophil myeloperoxidase (MPO) and eosinophil peroxidase (EPO) activities.
The chemokines CXCL1/KC, CCL2/MCP-1 and CCL24/Eotaxin2, and cytokines TNF-α, IFN-γ and IL-17A levels in supernatant of lung tissue were measured by ELISA. Results were expressed as levels of cytokines (pg/mL or ng/mL) per 0.1 g of wet tissue/mL of extraction buffer.
(In an ELISA, binding on a coated surface is turned into a signal by an enzyme label.)

Assay [5] shares this test system. The assay can be described thus: Lung histology (H&E), Example 2e. As to conditions: DF2755A 10 mg/kg oral twice a day, dexamethasone 5 mg/kg, FIG. 9.
Experimental: After BALF, left lung was removed and fixed in formalin 4% in PBS (pH 7.4). The tissue was dehydrated gradually in ethanol, embedded in paraffin, cut into 4 μm sections and stained with Hematoxylin and Eosin. Photomicrographs were obtained at 400× magnification and were analyzed using the software Image Pro Plus (Image-Pro Plus 4.1, Media Cybernetics, USA).

The structures appear in SMILES notation.

For the compound `C[C@H](C(=O)O)c1ccc(Nc2nc(C(F)(F)F)cs2)cc1` [DF2755A, (2S)-2-(4-{[4-(trifluoromethyl)-1,3-thiazol-2-yl]amino}phenyl) propanoic acid], the “accumulation of neutrophils in the lungs (MPO activity)” value in assay [1] (FIG. 6F) is “prevented the infiltration”. For the same compound, in assay [1] (FIG. 6G), the “infiltration of eosinophils in the lungs (EPO activity)” value is listed as “prevented the infiltration”. Besides, in assay [2] (day 28-31, FIG. 6B), the “neutrophil influx into the airways (BALF)” value is given as “able to reduce”. For the same compound, in assay [2] (FIG. 6C), the “eosinophil influx into the airways (BALF)” value is listed as “able to reduce”. The “lymphocytes influx into the airways (BALF)” value in assay [2] (FIG. 6E) is “able to reduce”. Also, in assay [3], the “pulmonary function / pulmonary mechanics (pulmonary volumes and resistance)” value was “did not significantly increased pulmonary function”. Moreover, the “CXCL1 level in the lungs” value in assay [4] (FIG. 7A) is given as “significantly reduced”. Moreover, the “CCL2 level in the lungs” value in assay [4] (FIG. 7B) is given as “significantly reduced”. Besides, in assay [4] (FIG. 7C), the “CCL24 level in the lungs” value is recorded as “significantly reduced”. Moreover, the “IFN-γ level in the lungs” value in assay [4] (FIG. 7D) is “not significant”. For the same compound, the “IL-17 level in the lungs” value in assay [4] (FIG. 7E) was “significantly reduced”. Moreover, in assay [4] (FIG. 7F), the “TNF-α level in the lungs” value is “significantly reduced”. In assay [5], the “lung inflammation, accumulation of leukocytes in the lung tissue (histology, inflammatory score)” value is “effective in reducing accumulation of leukocytes”.
